Reference: patent EP2363135B1, “Anti-jellyfish compositions” (Antonio Puig, S.A., priority 2010, dated 2011)
Where two headings read alike, the source gives them in different places.

Tests used:
Pelagia noctiluca = assay: in vitro inhibition of cnidocyst discharge, physical contact with a gelatin probe; format: cell-based; settings: 0.5 M in gelatin probe; for Discharged cnidocysts/mm^2 (%): control = 100; for Inhibition (%): versus control
Protocol: The efficacy of plant extracts and phytocompounds, in inhibiting cnidocyst discharge of Pelagia noctiluca (which is one of the most common species along the Mediterranean Sea) was evaluated by physical contact with a gelatin probe. Said probes, besides stimulating the cnidocyte battery, retained the different types of discharged cnidocysts that can have different sizes, thereby allowing a quantitative evaluation of the response.
Each gelatin probe was made coating one end of a 6 cm length of monofilament fishing line (1 mm diameter) with 25% (w/v) gelatin in deionized water and then placed in a humidified atmosphere during 30 minutes for gelatin solidification. The different substances to be tested were dissolved in deionized water at selected concentrations before the addition of gelatin: oat extract (Burgundi Cosmetics) and tea extract (Symrise lberica) were used at a final concentration of active agent of 0.025 % (w/v); dipotassium glycyrrhizate and hydroxytyrosol were used at a concentration of 0.5 M. Plain gelatin covered probes (no embebed active compound) were used as controls and represented maximum discharge figures.
After solidification, each gelatin probe was gently wiped across oral arms of Pelagia noctiluca 5 times from 1 to 5 seconds in the tanks. The probes were then placed in humidified atmosphere plates and observed under a steroemicroscope for cnidocyst quantification. Individual cnidocysts that had discharged into the gelatin probes were counted in 7 different fields of view and the mean value was calculated. Results are the average of triplicate probes.
An inhibitory effect was considered if the substance diminished the number of discharged nematocytes per mm^2 of gelatin probe as compared with controls.
The graphical representation of the interaction between two active compounds could be expressed as follows. […] The straight line connecting the effects of both substances on their own is the locus of points that will produce this effect in a simple additive combination, the additivity line.
FIG. 1 and FIG. 2 represent, respectively, the interaction between oat extract and lanthanum and tea extract and lanthanum in the inhibition of cnidocyst discharge. The number of discharged cnidocysts in Pelagia noctiluca was analysed for each combination of active agents by physical contact with a gelatin probe as described in Example 2. The doses of each of the constituents are referred as concentrations of active agent, i.e. of pure oat or green tea extract, and lanthanum cation.

[1] = test system: in situ cnidocytes of Pelagia noctiluca (Scyphozoa); settings: cited from earlier work

| Structure (SMILES) | Discharged cnidocysts/mm^2 (%) (Pelagia noctiluca) | Inhibition (%) (Pelagia noctiluca) | cnidocyst discharge ([1]; oral arms previously treated with 20 µmol/L) | cnidocyst discharge ([1]; oral arms previously treated with 2 mmol/L) |
| --- | --- | --- | --- | --- |
| OCCc1ccc(O)c(O)c1 [WHidroxytyrosol, hydroxytyrosol] | 43,6% | -56,4% | – | – |
| [Gd+3] [Gd^3+, gadolinium] | – | – | the discharge was inhibited | – |
| CC1(C)[C@@H](O[C@H]2O[C@H](C(=O)O)[C@@H](O)[C@H](O)[C@H]2O[C@@H]2O[C@H](C(=O)O)[C@@H](O)[C@H](O)[C@H]2O)CC[C@]2(C)[C@H]3C(=O)C=C4[C@@H]5C[C@@](C)(C(=O)O)CC[C@]5(C)CC[C@@]4(C)[C@]3(C)CC[C@@H]12 [Dipotassium glycyrrhizate, dipotassium glycyrrhizate] | 32,7% | -67,3% | – | – |
| [La+3] [La^3+, lanthanum] | – | – | – | the discharge was inhibited |
